Measured values as given in patent US10899738B2 (THE REGENTS OF THE UNIVERSITY OF MICHIGAN, priority 2016, dated 2021).
Read-outs that look alike come from different tables or passages of the source.

Experiments:
[1] = Cell growth inhibition, CellTiter-Glo Luminescent Cell Viability Assay; assay type: cell-based
How it was run: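 Cells seeded at 2,000/well with serially diluted compound and cultured 4 days at 37 °C, 5% CO2. Viability read by CellTiter-Glo luminescence; IC50 derived from dose-response.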

menin protein = menin protein (Homo sapiens (Human), UniProt O00255); test: biochemical; assay type: binding; conditions: FP competitive binding; menin protein 4 nM, FAM-MM2 probe 2 nM; read-out: Menin Binding Affinity IC50
How it was run: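 Test compounds displaced FAM-MM2 (2 nM) from 4 nM menin after 30 min equilibration at room temperature in PBS buffer containing bovine γ-globulin, 4% DMSO and Triton X-100. Binding was followed by fluorescence polarization. Competition curves were fitted by nonlinear regression to give IC50 and Ki.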

[2] = MOLM-13, 96 h, MOLM13 cells, 4 days, CellTiter-Glo, read-out: Cell Growth Inhibition IC50 (μM) MOLM13
[3] = MV4-11, 96 h, MV4, 11 cells, 4 days, CellTiter-Glo, read-out: Cell Growth Inhibition IC50 (μM) MV4, 11
[4] = MOLM-13, 96 h, read-out: Cell Growth Inhibition IC50 (μM) MOLM13, MOLM13 cells, 4 days, CellTiter-Glo
[5] = MV4-11, 96 h, read-out: Cell Growth Inhibition IC50 (μM) MV4, 11, MV4, 11 cells, 4 days, CellTiter-Glo

Sequence of menin protein (O00255 whole entry): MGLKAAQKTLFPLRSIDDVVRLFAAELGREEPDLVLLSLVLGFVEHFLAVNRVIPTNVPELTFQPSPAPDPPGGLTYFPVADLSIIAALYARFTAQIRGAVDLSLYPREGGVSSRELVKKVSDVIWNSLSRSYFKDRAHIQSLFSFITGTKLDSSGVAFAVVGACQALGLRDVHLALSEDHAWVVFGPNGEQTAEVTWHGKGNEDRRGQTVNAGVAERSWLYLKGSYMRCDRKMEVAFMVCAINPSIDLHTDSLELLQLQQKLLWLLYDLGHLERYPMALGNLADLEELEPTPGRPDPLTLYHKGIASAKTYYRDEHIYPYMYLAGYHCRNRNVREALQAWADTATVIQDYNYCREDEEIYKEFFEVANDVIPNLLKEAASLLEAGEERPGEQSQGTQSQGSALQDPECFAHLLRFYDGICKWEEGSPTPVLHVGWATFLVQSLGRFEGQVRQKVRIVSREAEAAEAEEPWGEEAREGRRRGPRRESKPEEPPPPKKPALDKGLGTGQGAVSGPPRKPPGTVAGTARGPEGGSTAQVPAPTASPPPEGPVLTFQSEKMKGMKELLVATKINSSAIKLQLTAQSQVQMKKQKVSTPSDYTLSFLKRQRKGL

Row | SMILES | IC50 [1, 2] | IC50 [1, 3] | IC50 (menin protein) | IC50 [1, 4] | IC50 [1, 5] | IC50 ([1]; read-out: Cell Growth Inhibition IC50 (μM) MOLM13, MOLM13 cells, 4 days, CellTiter-Glo) | IC50 ([1]; read-out: Cell Growth Inhibition IC50 (μM) MV4, 11, MV4, 11 cells, 4 days, CellTiter-Glo)
1 | CN1Cc2ccccc2C(C2CCCC2)(C2CCN(CC3CN(c4ccc(S(=O)(=O)C5CC5)cc4)C3)CC2)C1 (stereo not drawn) [compound 70, 4-cyclopentyl-4-(1-((1-(4-(cyclopropylsulfonyl)phenyl)azetidin-3-yl)methyl)piperidin-4-yl)-2-methyl-1,2,3,4-tetrahydroisoquinoline] | 3.5 µM | 2.2 µM | 12 nM |  |  |  | 
2 | CCN1Cc2ccccc2C(C2CCCC2)(C2CCN(CC3CN(c4ccc(S(=O)(=O)c5cnn(CC)c5)cc4)C3)CC2)C1 (stereo not drawn) [compound 103, 4-cyclopentyl-2-ethyl-4-(1-((1-(4-((1-ethyl-1H-pyrazol-4-yl)sulfonyl)phenyl)azetidin-3-yl)methyl)piperidin-4-yl)-1,2,3,4-tetrahydroisoquinoline] | 2.26 µM | 0.49 µM | 12 nM |  |  |  | 
3 | CNC(=O)O[C@H]1CCC[C@@H]1C(Cn1ccnc1)(c1ccccc1)C1CCN(CC2CN(c3ccc(Cl)cc3)C2)CC1 (mixture of isomers) [compound 407, rac-(1S,2R)-2-(1-(1-((1-(4-chlorophenyl)azetidin-3-yl)methyl)piperidin-4-yl)-2-(1H-imidazol-1-yl)-1-phenylethyl)cyclopentyl methylcarbamate] |  |  | 5 nM | 0.69 ± 0.089 µM | 0.41 ± 0.28 µM |  | 
4 | CNC(=O)O[C@H]1CCC[C@@H]1C(Cn1ccnc1C)(c1cccc(F)c1)C1CCN(CC2CN(c3ccc(S(=O)(=O)c4cnn(C)c4)cc3)C2)CC1 (mixture of isomers) [compound 411, rac-(1S,2R)-2-(1-(3-fluorophenyl)-2-(2-methyl-1H-imidazol-1-yl)-1-(1-((1-(4-((1-methyl-1H-pyrazol-4-yl)sulfonyl)phenyl)azetidin-3-yl)methyl)piperidin-4-3-yl)ethyl)cyclopentyl methylcarbamate] |  |  | 3 nM | 0.016 µM | 0.003 µM |  | 
5 | CCN1Cc2ccccc2C(C2CCCC2)(C2CCN(CC3CN(c4ccc(C#N)cc4)C3)CC2)C1 (stereo not drawn) [compound 46, 4-(3-((4-(4-cyclopentyl-2-ethyl-1,2,3,4-tetrahydroisoquinolin-4-yl)piperidin-1-yl)methyl)azetidin-1-yl)benzonitrile] | 5.1 ± 0.2 µM | 0.972 ± 0.558 µM | 23 nM |  |  |  | 
6 | CNC(=O)O[C@H]1CCC[C@@H]1C(Cn1ccnc1C)(c1ccccc1)C1CCN(CC2CN(c3ccc(C#N)cc3)C2)CC1 (mixture of isomers) [compound 406, rac-(1S,2R)-2-(1-(1-((1-(4-cyanophenyl)azetidin-3-yl)methyl)piperidin-4-yl)-2-(2-methyl-1H-imidazol-1-yl)-1-phenylethyl)cyclopentyl methylcarbamate] |  |  | 3 nM | 0.009 ± 0.0004 µM | 0.004 ± 0.002 µM |  | 
7 | O=S(=O)(CC1CCCC1)c1ccc(N2CC(CN3CCC(C4(C5CCCC5)NCCc5ccccc54)CC3)C2)cc1 (stereo not drawn) [compound 91, 1-cyclopentyl-1-(1-((1-(4-((cyclopentylmethyl)sulfonyl)phenyl)azetidin-3-yl)methyl)piperidin-4-yl)-1,2,3,4-tetrahydroisoquinoline] | 1.7 ± 0.004 µM | 1.3 ± 0.3 µM | 42 nM |  |  |  | 
8 | N#Cc1ccc(N2CCC(CN3CCC(C4(C5CCCC5)NCCc5ccccc54)CC3)C2)cc1 (stereo not drawn) [compound 113, 4-(3-((4-(1-cyclopentyl-1,2,3,4-tetrahydroisoquinolin-1-yl)piperidin-1-yl)methyl)pyrrolidin-1-yl)benzonitrile] | 2.4 µM | 1.6 µM | 67 nM |  |  |  | 
9 | CCN1Cc2ccccc2C(C2CCCC2)(C2CCN(CC3CN(c4ccc(S(=O)(=O)c5ccc(C(=O)O)cc5)cc4)C3)CC2)C1 (stereo not drawn) [compound 164, 4-((4-(3-((4-(4-cyclopentyl-2-ethyl-1,2,3,4-tetrahydroisoquinolin-4-yl)piperidin-1-yl)methyl)azetidin-1-yl)phenyl)sulfonyl)benzoic acid] | 0.72 µM | 0.27 µM | 8 nM |  |  |  | 
10 | COC(=O)N[C@H]1CCC[C@@H]1C(C#N)(c1ccccc1)C1CCN(CC2CN(c3ccc(S(=O)(=O)c4ccncc4)cc3)C2)CC1 (mixture of isomers) [Cpd. No. 345, methyl (rac-(1S,2R)-2-(cyano(phenyl)(1-((1-(4-(pyridin-4-ylsulfonyl)phenyl)azetidin-3-yl)methyl)piperidin-4-yl)methyl)cyclopentyl)carbamate] |  |  | 11 nM | 0.71 µM | 0.54 µM |  | 
11 | CCN1Cc2ccccc2C(C2CCN(CC3CN(c4ccc(S(=O)(=O)c5ccccc5)cc4)C3)CC2)([C@H]2CCC[C@@H]2NC(=O)NC)C1 (mixture of isomers) [compound 290, rac-1-((1S,2R)-2-(2-ethyl-4-(1-((1-(4-(phenylsulfonyl)phenyl)azetidin-3-yl)methyl)piperidin-4-yl)-1,2,3,4-tetrahydroisoquinolin-4-yl)cyclopentyl)-3-methylurea] |  |  | 9 nM | 0.32 µM | 0.11 µM |  | 
12 | CNC(=O)O[C@H]1CCC[C@@H]1C(C#N)(c1ccccc1)C1CCN(CC2(F)CN(c3ccc(S(=O)(=O)c4cnn(C)c4)cc3)C2)CC1 (mixture of isomers) [compound 369, rac-(1S,2R)-2-(cyano(1-((3-fluoro-1-(4-((1-methyl-1H-pyrazol-4-yl)sulfonyl)phenyl)azetidin-3-yl)methyl)piperidin-4-yl)(phenyl)methyl)cyclopentyl methylcarbamate] |  |  | 68 nM | 7.71 µM | 3.5 µM |  | 
13 | CC(=O)O[C@H]1CCC[C@@H]1C1(C2CCN(CC3CN(c4ccc(S(=O)(=O)C5CC5)cc4)C3)CC2)CN(C)Cc2ccc(F)cc21 (mixture of isomers) [compound 316, rac-(1S,2R)-2-(4-(1-((1-(4-(cyclopropylsulfonyl)phenyl)azetidin-3-yl)methyl)piperidin-4-yl)-6-fluoro-2-methyl-1,2,3,4-tetrahydroisoquinolin-4-yl)cyclopentyl acetate] |  |  | 3 nM | 1.8 µM | 0.3 µM |  | 
14 | CCN1Cc2ccccc2C(C2CCN(CC3CN(c4ccc(S(=O)(=O)c5ccn(C)c5)cc4)C3)CC2)([C@H]2CCC[C@@H]2NC(=O)NC)C1 (mixture of isomers) [compound 375, rac-1-((1S,2R)-2-(2-ethyl-4-(1-((1-(4-((1-methyl-1H-pyrrol-3-yl)sulfonyl)phenyl)azetidin-3-yl)methyl)piperidin-4-yl)-1,2,3,4-tetrahydroisoquinolin-4-yl)cyclopentyl)-3-methylurea] |  |  | 11 nM | 1.73 µM | 0.39 µM |  | 
15 | O=S(=O)(CC1CCCCC1)c1ccc(N2CC(CN3CCC(C4(C5CCCC5)NCCc5ccccc54)CC3)C2)cc1 (stereo not drawn) [compound 93, 1-(1-((1-(4-((cyclohexylmethyl)sulfonyl)phenyl)azetidin-3-yl)methyl)piperidin-4-yl)-1-cyclopentyl-1,2,3,4-tetrahydroisoquinoline] | 1.1 ± 0.7 µM | 0.779 ± 0.068 µM | 52 nM |  |  |  | 
16 | COC(=O)N[C@H]1CCC[C@@H]1C(C#N)(c1ccccc1)C1CCN(CC2CN(c3ccc(S(=O)(=O)c4ccc(F)cc4)cc3)C2)CC1 (mixture of isomers) [compound 394, methyl rac((1S,2R)-2-(cyano(1-((1-(4-((4-fluorophenyl)sulfonyl)phenyl)azetidin-3-yl)methyl)piperidin-4-yl)(phenyl)methyl)cyclopentyl) carbamate] |  |  | 15 nM | 1.94 µM | 0.43 µM |  | 
17 | CNC(=O)O[C@H]1CCC[C@@H]1C(Cn1ccnc1)(c1ccccc1)C1CCN(CC2CN(c3ccc(S(=O)(=O)c4ccc(C(=O)O)cc4)cc3)C2)CC1 (mixture of isomers) [compound 363, rac-4-((4-(3-((4-(2-(1H-imidazol-1-yl)-1-((1R,2S)-2-((methylcarbamoyl)oxy)cyclopentyl)-1-phenylethyl)piperidin-1-yl)methyl)azetidin-1-yl)phenyl)sulfonyl)benzoic acid] |  |  | 27 nM |  |  | 2.64 µM | 0.56 µM
18 | COC(=O)N[C@H]1CCC[C@@H]1C(C#N)(c1ccccc1)C1CCN(CC2CN(c3ccc(S(=O)(=O)c4ccc(C(N)=O)cc4)cc3)C2)CC1 (mixture of isomers) [compound 399, methyl rac-((1S,2R)-2-((1-((1-(4-((4-carbamoylphenyl)sulfonyl)phenyl)azetidin-3-yl)methyl)piperidin-4-yl)(cyano)(phenyl)methyl)cyclopentyl)carbamate] |  |  | 7 nM | 1.63 µM | 0.11 µM |  | 
19 | CCc1nccn1CC(c1ccccc1)(C1CCN(CC2CN(c3ccc(C#N)cc3)C2)CC1)[C@@H]1CCC[C@H]1OC(=O)NC (mixture of isomers) [compound 409, rac-(1R,2S)-2-(1-(1-((1-(4-cyanophenyl)azetidin-3-yl)methyl)piperidin-4-yl)-2-(2-ethyl-1H-imidazol-1-yl)-1-phenylethyl)cyclopentyl methylcarbamate] |  |  | 116 nM | 1.6 µM | 1.7 µM |  | 
20 | CC(=O)O[C@H]1CCC[C@@H]1C(C#N)(c1ccccc1)C1CCN(CC2CN(c3ccc(S(=O)(=O)c4ccncc4)cc3)C2)CC1 (mixture of isomers) [compound 185, rac-(1S,2R)-2-(cyano(phenyl)(1-((1-(4-(pyridin-4-ylsulfonyl)phenyl)azetidin-3-yl)methyl)piperidin-4-yl)methyl)cyclopentyl acetate] |  |  | 7 nM | 0.783 ± 0.474 µM | 0.624 ± 0.165 µM |  | 
